In ChEMBL document CHEMBL3112534, “A click chemistry approach to pleuromutilin derivatives. Part 3: extended footprinting analysis and excellent MRSA inhibition for a derivative with an adenine phenyl side chain” (2014):
Values after ≈ are worked out from the molar mass of the structure shown. Active and inactive are the calls of the source. No cut-off for these calls is given here.

What was measured:
[1] = system: Escherichia coli; experiment: Binding affinity to Escherichia coli MRE600 23S rRNA assessed as protection of A2062 at 25 uM by footprinting assay relative to control in presence of DMS
[2] = system: Escherichia coli; experiment: Antimicrobial activity against […] Escherichia coli AS19 after 20 hrs by two-fold broth dilution assay; format: functional; details: AS19, 20 h
[3] = system: Escherichia coli; experiment: Binding affinity to Escherichia coli MRE600 23S rRNA assessed as protection of A2059 at 25 uM by footprinting assay relative to control in presence of DMS
[4] = system: Staphylococcus aureus; experiment: Antimicrobial activity against methicillin-resistant Staphylococcus aureus USA300 after 20 hrs by two-fold broth dilution assay; format: functional; details: USA300, 20 h
[5] = system: Staphylococcus aureus; experiment: Antimicrobial activity against […] Staphylococcus aureus RN4220 after 20 hrs by two-fold broth dilution assay; format: functional; details: RN4220, 20 h
[6] = system: Escherichia coli; experiment: Binding affinity to Escherichia coli MRE600 23S rRNA assessed as protection of U2506 at 50 uM by footprinting assay relative to control in presence of CMCT
[7] = system: Escherichia coli; experiment: Binding affinity to Escherichia coli MRE600 23S rRNA assessed as protection of U2506 at 5 uM by footprinting assay relative to control in presence of CMCT
[8] = system: Escherichia coli; experiment: Binding affinity to Escherichia coli MRE600 23S rRNA assessed as protection of U2585 at 50 uM by footprinting assay relative to control in presence of CMCT
[9] = system: Escherichia coli; experiment: Binding affinity to Escherichia coli MRE600 23S rRNA assessed as protection of U2585 at 5 uM by footprinting assay relative to control in presence of CMCT

SMILES | Activity [1] | MIC [2] | Activity [3] | MIC [4] | MIC [5] | Activity [6] | Activity [7] | Activity [8] | Activity [9]
C=C[C@]1(C)C[C@@H](OC(=O)Cn2cc(-c3ccc(-n4cnc5c(N)ncnc54)cc3)nn2)[C@]2(C)[C@H](C)CC[C@]3(CCC(=O)[C@H]32)[C@@H](C)[C@@H]1O | inactive | 4 µg/mL (≈ 6.26 µM) | inactive | 0.5 µg/mL (≈ 0.783 µM) | 0.5 µg/mL (≈ 0.783 µM) | – | – | – | –
C=C[C@]1(C)C[C@@H](OC(=O)CSCCN(CC)CC)[C@]2(C)[C@H](C)CC[C@]3(CCC(=O)[C@H]32)[C@@H](C)[C@@H]1O [TIAMULIN] | – | 0.25 µg/mL (≈ 0.506 µM) | – | 1 µg/mL (≈ 2.03 µM) | 0.5 µg/mL (≈ 1.01 µM) | 3% | 5% | 40% | 41%
C=C[C@]1(C)C[C@@H](OC(=O)Cn2cc(/C=C/Cn3cnc4c(N)ncnc43)nn2)[C@]2(C)[C@H](C)CC[C@]3(CCC(=O)[C@H]32)[C@@H](C)[C@@H]1O | – | 2 µg/mL (≈ 3.32 µM) | – | 1 µg/mL (≈ 1.66 µM) | 1 µg/mL (≈ 1.66 µM) | – | – | – | –
C=C[C@]1(C)C[C@@H](OC(=O)Cn2cc(CCCn3cnc4c(N)ncnc43)nn2)[C@]2(C)[C@H](C)CC[C@]3(CCC(=O)[C@H]32)[C@@H](C)[C@@H]1O | – | 2 µg/mL (≈ 3.31 µM) | – | 2 µg/mL (≈ 3.31 µM) | 2 µg/mL (≈ 3.31 µM) | – | – | – | –
C=C[C@]1(C)C[C@@H](OC(=O)Cn2cc(-c3cccc(-n4cnc5c(N)ncnc54)c3)nn2)[C@]2(C)[C@H](C)CC[C@]3(CCC(=O)[C@H]32)[C@@H](C)[C@@H]1O | – | 0.5 µg/mL (≈ 0.783 µM) | – | 0.06 µg/mL (≈ 0.0939 µM) | 0.06 µg/mL (≈ 0.0939 µM) | – | – | – | –
C=C[C@]1(C)C[C@@H](OC(=O)CSC(C)(C)CNC(=O)[C@H](N)C(C)C)[C@]2(C)[C@H](C)CC[C@]3(CCC(=O)[C@H]32)[C@@H](C)[C@@H]1O [VALNEMULIN] | – | 0.03 µg/mL (≈ 0.0531 µM) | – | 0.06 µg/mL (≈ 0.106 µM) | 0.03 µg/mL (≈ 0.0531 µM) | 2% | 2% | 12% | 10%
C=C[C@]1(C)C[C@@H](OC(=O)Cn2cc(COCCn3cnc4c(N)ncnc43)nn2)[C@]2(C)[C@H](C)CC[C@]3(CCC(=O)[C@H]32)[C@@H](C)[C@@H]1O | – | > 4 µg/mL | – | > 4 µg/mL | > 4 µg/mL | 4% | 9% | 14% | 27%
C=C[C@]1(C)C[C@@H](OC(=O)Cn2cc(CN(CC)CC)nn2)[C@]2(C)[C@H](C)CC[C@]3(CCC(=O)[C@H]32)[C@@H](C)[C@@H]1O | – | ≥ 4 µg/mL | – | > 4 µg/mL | > 4 µg/mL | 8% | 27% | 28% | 51%
C=C[C@]1(C)C[C@@H](OC(=O)Cn2nncc2CCCn2cnc3c(N)ncnc32)[C@]2(C)[C@H](C)CC[C@]3(CCC(=O)[C@H]32)[C@@H](C)[C@@H]1O | – | 4 µg/mL (≈ 6.61 µM) | inactive | > 4 µg/mL | 4 µg/mL (≈ 6.61 µM) | – | – | – | –
C=C[C@]1(C)C[C@@H](OC(=O)CO)[C@]2(C)[C@H](C)CC[C@]3(CCC(=O)[C@@H]32)[C@@H](C)[C@@H]1O | – | – | – | – | – | 5% | 15% | 59% | 73%
